Data taken from PubChem BioAssay AID504882 (Broad Institute, 2011).
Inconclusive results are not listed. Active and inactive are the calls of the source. How the calls were made is not given here.

system: EBV lymphoblastoid cells (LCL) viability, plate reader; assay: LCL viability reduction – cell-based, plate reader, cherry-picks, set 2, cytotoxicity control, dose response (AID 504882)

SMILES	AC50
Fc1ccc2[nH]c3c(N4CCSCC4)ncnc3c2c1	17.5 µM
COc1cccc(/C=N/Nc2nccnc2Cl)c1O	3.86 µM
COc1ccccc1-c1nnc(Sc2nc([N+](=O)[O-])nn2C)o1	8.25 µM
O=Cc1ccc(-c2cccs2)s1	11.8 µM
Cc1ccc(CSc2nc3ccncc3[nH]2)cc1	19.5 µM
Cc1c(C(=O)Nc2nc(-c3ccccn3)cs2)oc2ccccc12	11 µM
COc1cccc(/C=N/Nc2ncnc(Cl)c2N)c1O	3.73 µM
Oc1ccc(C=NNc2ccccn2)c(O)c1	16.2 µM
COc1ccc(O)c(/C=N/Nc2nc(Nc3ccccc3)nc(-n3nc(C)cc3C)n2)c1	10.7 µM
CCCCCCc1cc2cc(-c3nnc(-c4ccccc4)o3)c(=O)oc2cc1O	9.34 µM
Cc1cccc(-n2ncc(Cl)c(Cl)c2=O)c1	1.59 µM
Nc1ccn([C@@H]2O[C@H](CO)[C@@H](O)C2O)c(=O)n1 (stereo partly drawn)	1.1 µM
COc1ccc(-c2nc(-c3cccs3)no2)cc1	> 19.5 µM (inactive)
C(=N\Nc1nc2ccccc2[nH]1)/c1cccc2cccnc12	1.06 µM
O=c1cc(-c2ccccc2)oc2ccc3ccccc3c12	8.53 µM
CCN(CC)c1ccc(/C=N/NC(=O)c2ccc3nc[nH]c3c2)c(O)c1	4.14 µM
COc1ccc(-c2[nH]ncc2-c2ccc3c(c2)OCCO3)c(O)c1	> 19.5 µM (inactive)
CC(=NNC(=S)N1CCCCCC1)c1ccccn1	0.354 µM
COc1ccc(C(=O)NC2CCCc3c2cnn3-c2cccc(C)c2C)c(OC)n1 (stereo not drawn)	1.22 µM
O=C(N/N=C/c1cc2c3c(c1O)CCCN3CCC2)c1ccccc1O	3.05 µM
O=C(Nc1ccc(N2CCOCC2)cc1)c1cn2ccccc2n1	10.9 µM

SMILES	AC50
CN1C(=O)N(C)c2ccc(C=O)c3cccc1c23	5.99 µM
O=C(CCl)N(c1ccc(Cl)cc1)c1c[nH]c2ccccc12	3.35 µM
CC(=O)NC(c1ccc(Cl)cc1)c1ccc2cccnc2c1O (stereo not drawn)	1.21 µM
O=C(c1ccccc1)C(CCC(CN1CCOCC1)C(=O)c1ccccc1)CN1CCOCC1 (stereo not drawn)	7.73 µM
C=C(C(=O)c1ccccc1)C(CC(=O)c1ccccc1)c1ccccc1 (stereo not drawn)	3.79 µM
Cc1cc(=O)[nH]c(NN=Cc2cc(Br)ccc2O)n1	3.92 µM
COc1ccc(-n2nc(C(=O)c3cccs3)cc(-c3nc4ccccc4[nH]3)c2=N)cc1	8.9 µM
CCN(CC)c1ccc(/C=N/NC(=O)c2cnccn2)c(O)c1	3.23 µM
CC(=O)c1ccc(-c2nc3c4ccccc4ccn3c2C(C)=O)o1	0.371 µM
O=C(Nc1nc(-c2ccccn2)cs1)c1ccc(Br)s1	1.29 µM
CC(=O)OC1CCC2(C)C(CCC3C4CC=C(C(C)=O)C4(C)OC(=O)CC32)C1 (stereo not drawn)	3.85 µM
O=C(N/N=C/c1c(O)ccc2ccccc12)c1ccc(Br)o1	6.22 µM
CCOC(=O)CC(NC(=O)C(Cc1ccc(N(CCCl)CCCl)cc1)NC(C)=O)C(=O)OCC (stereo not drawn)	5.68 µM
C#CCN(C[C@@H]1[C@@H](OC(=O)NCc2ccccc2F)[C@@H](OC(=O)NCc2ccccc2F)Cn2c(=O)ccc(=O)n21)S(=O)(=O)c1ccc(C)cc1	3.8 µM
CC(=NNC(=S)N1CCCC1)c1ccccn1	0.037 µM
O=C(N/N=C/c1c(O)ccc2ccccc12)c1cccnc1	10.5 µM
c1ccc(C(=NNc2nc3ccccc3s2)c2ccccn2)cc1	1.06 µM
CCNc1ccc(Br)cc(C(=O)/C=C/c2ccccc2Cl)c1=O	15.3 µM
CCN(CC)S(=O)(=O)c1cccc(NC(=O)Nc2cccc(C(F)(F)F)c2)c1	9.7 µM
COc1ccccc1[C@]1(C)ON(c2ccccc2C(F)(F)F)C1=O	16.7 µM
Cc1cc(Sc2nnc(N)s2)c2ccccc2n1	16.8 µM

SMILES	AC50
NC(=S)NN=Cc1nccc2c(N)cccc12	1.04 µM
Cc1onc(-c2ccccc2)c1C(=O)NC(=S)NNC(=O)c1ccc(O)cc1O	> 19.5 µM (inactive)
C#CCN(C[C@@H]1[C@@H](OC(=O)NCCCCCC)[C@@H](OC(=O)NCCCCCC)Cn2c(=O)ccc(=O)n21)S(=O)(=O)c1ccc(C)cc1	3.98 µM
CC(=NNC(=S)Nc1ccccc1Cl)c1ccccn1	0.055 µM
C/C(=N/NC(=O)c1ccc(C(C)(C)C)cc1)c1ccccn1	1.05 µM
Clc1ccc(-n2nnnc2Sc2ncnc3sccc23)cc1	8.53 µM
O=C(N/N=C/c1sc2ccccc2c1O)c1cccc2ccccc12	1.71 µM
CCNc1ccc(Br)cc(C(=O)/C=C/c2c(Cl)cccc2Cl)c1=O	13.8 µM
CCOC(=O)c1c(CSc2nc(C)cc(C)c2C#N)n(C)c2cc(Br)c(OC(C)=O)cc12	14.6 µM
CCCc1c(C(=O)N/N=C(\C)c2ccccn2)nnn1-c1nonc1N	1.57 µM
CCOC(=O)c1c2c(n(C)c1C)C(=O)C(=O)c1ccc(Br)cc1-2	1.95 µM
O=C(Nc1ccc(C(=O)N2CCOCC2)cc1)Nc1cccc(C(F)(F)F)c1	> 19.5 µM (inactive)
c1ccc(-c2nc(-c3ccccn3)no2)cc1	9.22 µM
CC(=NNC(=S)Nc1cccc(Cl)c1)c1ccccn1	0.138 µM
COc1ccc2[nH]c(C(=O)N/N=C/c3ccc(O)cc3O)cc2c1	16 µM
CCOC(=O)c1cnc(-n2nc(C)cc2C)nc1NNc1cc(C)nc(-c2ccccc2)n1	3.73 µM
Cc1ccc2[nH]c(C(=O)N/N=C/c3ccccc3O)c(C)c2c1	3.05 µM
Oc1c(N=NC(=S)Nc2ccccc2F)c2ccccc2n1Cc1cccc(Cl)c1	> 19.5 µM (inactive)
Cc1ccc(C(=O)Nc2sc(Cc3ccc4c(c3)OCO4)c(C)c2C(N)=O)cc1	19.2 µM
S=C(NCCCN1CCOCC1)N1CCN(c2nc(-c3ccc(Cl)cc3)cs2)CC1	12.9 µM
NC(=S)NN=Cc1nccc2c(C(F)(F)F)cccc12	1.15 µM

SMILES	AC50
Cc1cc(=O)[nH]c(N=N/C(=N/Nc2ccccc2C)c2ccccc2)n1	8.28 µM
Cc1csc(N=Nc2ccc(N(C)C)cc2)[n+]1[O-]	7.33 µM
O=C(Oc1c(Cl)cc(Cl)c2cccnc12)c1cccc([N+](=O)[O-])c1	18.8 µM
COc1cccc(/C=N/Nc2nc3ccccc3[nH]2)c1O	4.42 µM
COc1ccccc1/C=C/C(=O)c1ccc(Cl)cc1	> 19.5 µM (inactive)
Cc1sc2ncnc(N/N=C/c3ccccc3O)c2c1C	3.59 µM
Cc1cc(Sc2nnc(/N=C/N(C)C)s2)c2ccccc2n1	9.16 µM
Cc1cc(N/N=C\c2ccc(Br)cc2)nc(-n2nc(C)cc2C)n1	4.81 µM
CCc1cc(C(=O)Nc2ncccc2O)sc1C	> 19.5 µM (inactive)
COc1nc(Nc2nc3ccccc3c(=O)[nH]2)nc2ccc(C)cc12	2.23 µM
S=C(NN=Cc1ccccn1)Nc1ccccn1	9.02 µM
O=C(N/N=C/c1ccc[nH]1)c1ccc(COc2cccc3cccnc23)cc1	4.93 µM
CCCC(=O)NC(c1cccc([N+](=O)[O-])c1)c1ccc2cccnc2c1O (stereo not drawn)	3.51 µM
CCn1c2ccccc2c2cc(/C=N/n3c(C)nnc3C)ccc21	> 19.5 µM (inactive)
COc1ccc(Cc2nnc(N/N=C/c3ccc(O)cc3)[nH]c2=O)cc1OC	4.05 µM
CCNC(=S)NNC(=O)c1cc(-c2ccc(OCC)cc2)nc2ccccc12	7.85 µM
CCCCC(=O)NC(c1cccc([N+](=O)[O-])c1)c1ccc2cccnc2c1O (stereo not drawn)	5.14 µM
Nc1ccn([C@@H]2O[C@H](CO)[C@@H](O)[C@@H]2O)c(=O)n1	0.748 µM
CCN1CCN(Cc2ccc(NC(=O)c3ccc(C)c(NC(=O)c4c[nH]c5cc(C(F)(F)F)ccc5c4=O)c3)cc2C(F)(F)F)CC1	3.95 µM
O=C(Nc1nc(-c2ccccn2)cs1)c1ccc(Cl)s1	1.34 µM
